Data on 7 molecules can be found in patent US10259810B2, “N-sulfonylated pyrazolo[3,4-b]pyridin-6-carboxamides and method of use” (AbbVie S.à.r.l., priority 2015, dated 2019).

Assay type in all cases: cell-based
Experiment [1] addresses T1, ΔF508-CFTR (Homo sapiens, UniProt P13569, DEL508-508).
T1 construct: host or cells: CFBE41o-, doxycycline-inducible
The experiment can be described thus: CFTR cell surface levels using HRP-tagged ΔF508-CFTR expressing CFBE cells, in the presence of a co-corrector. The settings on record: HRP-tagged ΔF508-CFTR CFBE cells, in the presence of 3 μM co-corrector; for EC50: read-out: EC50. The gist of the method:
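Chemiluminescent read-out of surface HRP (15 min, dark) after PBS washes. Activity is normalized as 100×(sample−DMSO)/(3 μM co-corrector alone−DMSO).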

Experiment [2] concerns the target T1, ΔF508-CFTR. Description: CFTR cell surface levels using HRP-tagged ΔF508-CFTR expressing CFBE cells, intrinsic corrector capacity. More on the design: % Activation: concentration or dose not given beside the values. Particulars: HRP-tagged ΔF508-CFTR expressing CFBE41o- cells, compound alone (intrinsic corrector capacity), 20 hours at 33° C.; for EC50: read-out: EC50. An outline of the steps: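 Surface ΔF508-CFTR was measured as HRP chemiluminescence from an extracellular-loop-4 tag, expressed as percent activity between DMSO and a […] corrector control.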

A further experiment concerns the target T2, CFTR ΔF508 (Homo sapiens, UniProt P13569, DEL508-508).
T2 construct: bronchial epithelial cells isolated from CF patients homozygous for the CFTR ΔF508 mutation; McGill University; Asterand; University of North Carolina hAEC-CF; host or cells: primary human bronchial epithelial cells from CF patients homozygous for ΔF508, differentiated at air-liquid interface
Description: Chronic TECC assay, primary bronchial epithelial cells of CF patients homozygous for CFTR ΔF508 (corrector, co-corrector and potentiator). The settings on record: chronic TECC, AUC = full area under the curve upon forskolin stimulation; for EC50: read-out: EC50 (nM) (AUC**); for % Activity at 1 μM (AUC**): test compound at 1 μM. The gist of the method:
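Primary bronchial epithelial cells from ΔF508-homozygous CF patients on collagen IV-coated Transwells were chronically treated with test compound plus corrector and potentiator, which were re-added before recording. Ieq was derived from PD and Rt in NaCl-Ringer, pH 7.4, at 37° C, with apical amiloride and bilateral forskolin, recorded every 2 min over 20 min. Ieq increase was normalized to controls, and EC50 was taken from per-well concentrations.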

T2 sequence (P13569 with tags, fused parts or gaps DEL508-508): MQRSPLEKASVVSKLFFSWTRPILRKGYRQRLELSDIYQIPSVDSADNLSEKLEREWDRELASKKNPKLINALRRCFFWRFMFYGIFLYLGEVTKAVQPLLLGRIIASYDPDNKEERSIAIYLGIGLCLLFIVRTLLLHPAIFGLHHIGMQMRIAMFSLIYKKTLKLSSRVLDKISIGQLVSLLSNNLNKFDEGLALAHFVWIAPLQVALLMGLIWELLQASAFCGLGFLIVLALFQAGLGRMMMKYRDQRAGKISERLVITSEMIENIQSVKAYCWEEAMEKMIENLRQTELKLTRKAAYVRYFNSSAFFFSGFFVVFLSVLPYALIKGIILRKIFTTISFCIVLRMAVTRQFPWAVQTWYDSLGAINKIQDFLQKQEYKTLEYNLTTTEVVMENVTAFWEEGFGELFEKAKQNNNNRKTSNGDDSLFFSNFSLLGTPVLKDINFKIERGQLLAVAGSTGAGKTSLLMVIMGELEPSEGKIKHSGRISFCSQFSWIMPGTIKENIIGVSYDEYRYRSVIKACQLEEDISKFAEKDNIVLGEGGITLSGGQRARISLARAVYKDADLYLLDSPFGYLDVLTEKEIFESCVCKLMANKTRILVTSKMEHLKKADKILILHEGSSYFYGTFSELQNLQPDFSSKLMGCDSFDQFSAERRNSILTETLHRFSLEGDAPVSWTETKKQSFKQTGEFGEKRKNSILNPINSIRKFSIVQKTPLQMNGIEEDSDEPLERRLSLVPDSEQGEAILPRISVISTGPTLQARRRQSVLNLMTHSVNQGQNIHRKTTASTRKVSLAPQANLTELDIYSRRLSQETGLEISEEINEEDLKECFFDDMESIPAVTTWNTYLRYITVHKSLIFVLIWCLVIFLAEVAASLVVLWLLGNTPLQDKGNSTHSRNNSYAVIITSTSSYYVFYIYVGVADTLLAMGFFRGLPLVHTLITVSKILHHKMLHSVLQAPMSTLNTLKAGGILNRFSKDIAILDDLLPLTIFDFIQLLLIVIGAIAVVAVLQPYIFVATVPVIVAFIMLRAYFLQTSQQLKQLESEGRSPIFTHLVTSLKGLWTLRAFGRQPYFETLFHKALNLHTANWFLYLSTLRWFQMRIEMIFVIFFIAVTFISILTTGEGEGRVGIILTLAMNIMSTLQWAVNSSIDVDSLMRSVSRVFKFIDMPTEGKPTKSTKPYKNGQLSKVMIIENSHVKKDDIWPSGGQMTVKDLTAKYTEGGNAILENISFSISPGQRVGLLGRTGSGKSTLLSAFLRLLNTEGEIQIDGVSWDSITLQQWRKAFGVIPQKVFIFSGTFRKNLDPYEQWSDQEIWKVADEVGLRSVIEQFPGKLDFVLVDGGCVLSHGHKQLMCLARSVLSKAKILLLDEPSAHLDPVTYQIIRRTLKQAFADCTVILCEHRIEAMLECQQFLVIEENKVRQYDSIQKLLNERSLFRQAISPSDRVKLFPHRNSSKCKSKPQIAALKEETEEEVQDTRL
T1 sequence (P13569 with tags, fused parts or gaps DEL508-508): as above

The EC50 is the concentration at which the effect is half-maximal. With `CS(=O)(=O)NC(=O)c1cc(N2CCC(OCC3CC3)CC2)c2c(C3CCC3)nn(-c3ccccc3)c2n1` [Compound 230, 3-cyclobutyl-4-[4-(cyclopropylmethoxy)piperidin-1-yl]-N-(methanesulfonyl)-1-phenyl-1H-pyrazolo[3,4-b]pyridine-6-carboxamide], the “% Activation” value on ΔF508-CFTR [1] is listed as 440.1%; at ΔF508-CFTR [2], 243.75%. For the same molecule, the EC50 amounted to 180 nM at ΔF508-CFTR [1], 406 nM at ΔF508-CFTR [2] and 27 nM on CFTR ΔF508. Besides, the “% Activity at 1 μM (AUC**)” value at CFTR ΔF508 is listed as 265.44%.

As for `COCCS(=O)(=O)NC(=O)c1cc(N2CCC(COC)CC2)c2c(C(C)C)nn(-c3ccc(F)cc3)c2n1` [Compound 236, 1-(4-fluorophenyl)-N-(2-methoxyethanesulfonyl)-4-[4-(methoxymethyl)piperidin-1-yl]-3-(propan-2-yl)-1H-pyrazolo[3,4-b]pyridine-6-carboxamide], on ΔF508-CFTR [1], the “% Activation” value is on record as 497.5% and the EC50 was found to be 93.2 nM. Moreover, on ΔF508-CFTR [2], the “% Activation” value was found to be 309.83% and the EC50 is 316 nM. Also, on CFTR ΔF508, the concentration for a half-maximal effect (EC50) was 80 nM and the “% Activity at 1 μM (AUC**)” value stood at 434.22%.

With `CS(=O)(=O)NC(=O)c1cc(OCC2CCC(F)(F)C2)c2c(C3CCC3)nn(-c3ccccc3)c2n1` (stereo not shown) [Compound 238, 3-cyclobutyl-4-[(3,3-difluorocyclopentyl)methoxy]-N-(methanesulfonyl)-1-phenyl-1H-pyrazolo[3,4-b]pyridine-6-carboxamide], the figures for the “% Activation” value on ΔF508-CFTR [1] and at ΔF508-CFTR [2] were 347.55% and 159.83%, respectively. For the same molecule, the EC50 is 219 nM on ΔF508-CFTR [1] and 601 nM at ΔF508-CFTR [2]. Further, the “% Activity at 1 μM (AUC**)” value on CFTR ΔF508 is listed as 521.96%.

As for `CC(C)c1nn(-c2ccc(F)cc2)c2nc(C(=O)NS(C)(=O)=O)cc(N3CCC(C#N)CC3)c12` [Compound 240, 4-(4-cyanopiperidin-1-yl)-1-(4-fluorophenyl)-N-(methanesulfonyl)-3-(propan-2-yl)-1H-pyrazolo[3,4-b]pyridine-6-carboxamide], the “% Activation” value on ΔF508-CFTR [1] was 312.8%; on ΔF508-CFTR [2], 176.67%. Besides, the figures for the EC50 on ΔF508-CFTR [1], on ΔF508-CFTR [2] and at CFTR ΔF508 were 139 nM, 377 nM and 140 nM, respectively. In addition, the “% Activity at 1 μM (AUC**)” value at CFTR ΔF508 was found to be 288.71%.

As to `COC(C)C1CCN(c2cc(C(=O)NS(C)(=O)=O)nc3c2c(C2CCC2)nn3-c2ccccc2)CC1` (stereo not shown) [Compound 241, 3-cyclobutyl-N-(methanesulfonyl)-4-[4-(1-methoxyethyl)piperidin-1-yl]-1-phenyl-1H-pyrazolo[3,4-b]pyridine-6-carboxamide], on ΔF508-CFTR [1], the “% Activation” value is recorded as 488.15% and the EC50 amounted to 82.2 nM. Also, at ΔF508-CFTR [2], the “% Activation” value is 261.93% and the EC50 was found to be 366 nM. Further, at CFTR ΔF508, the concentration giving a half-maximal response (EC50) is less than 10 nM and the “% Activity at 1 μM (AUC**)” value was found to be 400%.

For `COC(C)(C1CCN(c2cc(C(=O)NS(C)(=O)=O)nc3c2c(C2CCC2)nn3-c2ccccc2)CC1)C(F)(F)F` (stereo not shown) [Compound 242, 3-cyclobutyl-N-(methanesulfonyl)-1-phenyl-4-[4-(1,1,1-trifluoro-2-methoxypropan-2-yl)piperidin-1-yl]-1H-pyrazolo[3,4-b]pyridine-6-carboxamide], on ΔF508-CFTR [1], the “% Activation” value is reported as 459.15% and the concentration giving a half-maximal response (EC50) stood at 203 nM. In addition, at ΔF508-CFTR [2], the “% Activation” value is reported as 242.1% and the EC50 amounted to 283 nM. Also, at CFTR ΔF508, the EC50 amounted to 14 nM and the “% Activity at 1 μM (AUC**)” value is 308.45%.

In the case of `CS(=O)(=O)NC(=O)c1cc(OCCN2CCS(=O)(=O)CC2)c2c(C3CCC3)nn(-c3ccccc3)c2n1` [Compound 243, 3-cyclobutyl-4-[2-(1,1-dioxo-1λ^6,4-thiazinan-4-yl)ethoxy]-N-(methanesulfonyl)-1-phenyl-1H-pyrazolo[3,4-b]pyridine-6-carboxamide], the “% Activation” value amounted to 204.1% at ΔF508-CFTR [1] and 78.11% at ΔF508-CFTR [2]. The EC50 was found to be 3330 nM on ΔF508-CFTR [1] and 3340 nM on ΔF508-CFTR [2]. The “% Activity at 1 μM (AUC**)” value at CFTR ΔF508 is on record as 165.81%.
